{"source": "patent US8114410B2", "about": "“Composition and methods for the inhibition of membrane fusion by paramyxoviruses” (priority 2001, dated 2012)", "key": {"[1]": {"tested_on": "HeV-mediated fusion (HeLa cells expressing HeV F and G, U373 target cells)"}, "[2]": {"tested_on": "NiV-mediated fusion (HeLa cells expressing NiV F and G, U373 target cells)"}}}
{"compound": "CC[C@H](C)[C@H](NC(=O)[C@H](Cc1ccc(O)cc1)NC(=O)[C@H](CC(=O)O)NC(=O)[C@H](CCCCN)NC(=O)[C@H](CO)NC(=O)[C@H](CCC(N)=O)NC(=O)[C@H](CCC(N)=O)NC(=O)[C@H](CC(C)C)NC(=O)[C@H](CO)NC(=O)[C@H](CCC(N)=O)NC(=O)[C@H](CC(N)=O)NC(=O)[C@H](CCSC)NC(=O)[C@H](CO)NC(=O)[C@H](CO)NC(=O)[C@@H](NC(=O)[C@H](CCC(N)=O)NC(=O)[C@H](CO)NC(=O)[C@H](CO)NC(=O)[C@@H](NC(=O)[C@H](CC(=O)O)NC(=O)[C@@H](NC(=O)[C@H](CCCCN)NC(=O)[C@H](CC(=O)O)NC(=O)[C@@H](NC(=O)[C@H](Cc1ccccc1)NC(=O)[C@@H](NC(=O)[C@@H]1CCCN1C(=O)[C@@H]1CCCN1)C(C)C)[C@@H](C)O)C(C)C)[C@@H](C)CC)[C@@H](C)CC)C(=O)N[C@@H](CCCCN)C(=O)N[C@@H](CCC(=O)O)C(=O)N[C@@H](C)C(=O)N[C@@H](CCC(N)=O)C(=O)N[C@@H](CCCNC(=N)N)C(=O)N[C@@H](CC(C)C)C(=O)N[C@@H](CC(C)C)C(=O)N[C@@H](CC(=O)O)C(=O)N[C@H](C(=O)N[C@H](C(=O)N[C@@H](CC(N)=O)C(=O)N1CCC[C@H]1C(=O)N[C@@H](CO)C(=O)N[C@@H](CC(C)C)C(=O)O)C(C)C)[C@@H](C)O", "note": "[NiV FC1]", "values": [{"measurement": "IC50", "setting": "[1]", "value": "5.2 to 5.8", "unit": "nM"}, {"measurement": "Inhibition of HeV-mediated fusion (in words)", "setting": "[1]", "value": "completely inhibitory in the nM range"}, {"measurement": "IC50", "setting": "[2]", "value": "5.2 to 5.8", "unit": "nM"}, {"measurement": "Inhibition of NiV-mediated fusion (in words)", "setting": "[2]", "value": "completely inhibitory in the nM range"}]}
